Measurements as given in patent US20240025919A1, “AZA-TETRACYCLIC OXAZEPINE COMPOUNDS AND USES THEREOF” (Genentech, Inc., priority 2022, published 2024).
Several values for one entry are separate records, joined by “and”; a condition that tells them apart may be missing. Identical values can stand only once. Like-named read-outs stand apart in the source and are kept apart here.

Key:
[1] = test system: H1975 (KRAS wild type human lung adenocarcinoma cell line); experiment: KRAS 3D-Cell Proliferation Assay, H1975 (CellTiter-Glo 3D, 7 days); type: cell-based; conditions: H1975 3D culture, read-out: Prolif H1975 3D ATP IC50
Protocol: (§1) Example 503: KRAS 3D-Cell Proliferation Assays. Cellular potencies of compounds are assessed by evaluating inhibition of proliferation in 3D cultures of homozygous mutant KRAS G12D human pancreatic cell lines (AsPC-1 and HPAC) as compared to a KRAS wild type human lung adenocarcinoma cell line (PC-9 and/or H1975). Cells are seeded into 384-well black round-bottom, ultra-low attachment assay plates in 50 uL cell growth medium (RPMI-1640 with 10% fetal bovine serum and 2 mM L-glutamine). After overnight incubation at 37° C. and 5% CO2, compounds solubilized in DMSO are added as dilution series to the wells in a total volume of 150 nL (0.3% DMSO final). The cells are incubated for 7 days at 37° C. and 5% CO2. Cell proliferation is quantitated by addition of 40 uL/well of CellTiter-GloO 3D (Promega), and the well contents are mixed 20× at high speed using liquid handling automation workstation (Bravo with 384-well head) and centrifuged at 1500 rpm for 2 minutes to eliminate bubbles. This reagent in combination with mechanical disruption releases the cellular ATP to promote activity in a luciferase-based enzyme/substrate chemiluminescent detection system. After a 30-minute incubation under ambient conditions with shaking and an additional 10 minutes without shaking, the luminescence is read on a plate reader (e.g. EnVision [PerkinElmer]). The results are normalized to percent inhibition based on the following control samples: DMSO (0% inhibition) and 1 uM staurosporine (100% inhibition). The normalized luminescence results are plotted against compound concentration, and the data are fit to a 4-parameter Hill equation to determine the IC50 values.

KRAS WT [2] = target: T1, KRAS WT (Homo sapiens (Human), UniProt P01116); experiment: KRAS WT Biochemical Assay, BODIPY-GDP Exchange TR-FRET (Example 502; 0.06 nM KRAS WT, 15 nM GDP, 300 nM SOS1, 120-minute incubation); conditions: read-out: KRas HTRF IC50
Outline: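 Biotin-tagged recombinant KRAS WT (0.06 nM) preloaded with 15 nM GDP and Tb-streptavidin, 10 min RT, then exchange started with 300 nM SOS1 plus 300 nM BODIPY-GDP in HEPES pH 7.5 buffer with MgCl2. TR-FRET 520/490 ratio read after 120 min; normalized to DMSO and full-inhibition control; IC50 from 4-parameter fit.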

KRAS G12D = KRAS G12D (Homo sapiens (Human), UniProt P01116, G12D); experiment: KRAS G12D LoEnz Biochemical Assay, BODIPY-GDP Exchange TR-FRET (SOS1-mediated nucleotide exchange); conditions: read-out: KRas (G12D) GDP HTRF IC50
[3] = test system: HPAC (homozygous mutant KRAS G12D human pancreatic cell line); experiment: KRAS 3D-Cell Proliferation Assay, HPAC (CellTiter-Glo 3D, 7 days); type: cell-based; conditions: HPAC 3D culture, read-out: Prolif HPAC 3D ATP IC50
Protocol: as §1

[4] = test system: PC-9 (KRAS wild type human lung adenocarcinoma cell line); experiment: KRAS 3D-Cell Proliferation Assay, PC-9 (CellTiter-Glo 3D, 7 days); type: cell-based; conditions: PC-9 3D culture, read-out: Prolif PC9 3D ATP IC50
Protocol: as §1

KRAS WT [5] = target: T1, KRAS WT; experiment: KRAS WT Biochemical Assay, BODIPY-GDP Exchange TR-FRET (Example 501; 3 nM KRAS WT, 3 nM SOS1, 60-minute incubation)
Outline: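 SOS1-mediated exchange assay: 3 nM biotin-KRAS WT with terbium-streptavidin, started with 3 nM SOS1 and 300 nM BODIPY-GDP, HEPES pH 7.5 with MgCl2. TR-FRET (520/490 nm) read after 60 min; normalized to DMSO and full-inhibition control, IC50 from 4-parameter Hill fit.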

[6] = read-out: KRas(wt) GDP HTRF IC50

T1 sequence (P01116-2 other isoform, or with tags, fused parts or gaps): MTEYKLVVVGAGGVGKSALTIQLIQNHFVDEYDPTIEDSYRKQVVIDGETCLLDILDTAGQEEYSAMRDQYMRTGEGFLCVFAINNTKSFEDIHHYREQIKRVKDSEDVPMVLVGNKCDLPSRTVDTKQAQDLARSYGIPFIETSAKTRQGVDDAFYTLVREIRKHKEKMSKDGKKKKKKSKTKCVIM
Chain of KRAS G12D (P01116-2 other isoform, or with tags, fused parts or gaps G12D): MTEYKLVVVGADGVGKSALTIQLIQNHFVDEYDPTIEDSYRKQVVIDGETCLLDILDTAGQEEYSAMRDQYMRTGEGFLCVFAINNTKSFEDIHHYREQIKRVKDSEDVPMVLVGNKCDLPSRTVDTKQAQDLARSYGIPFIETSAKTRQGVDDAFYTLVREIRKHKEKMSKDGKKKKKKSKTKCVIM

SMILES	IC50 ([1]; Homo sapiens, NCI-H1975, 168 h) [nM]	IC50 (KRAS WT [2]) [nM]	IC50 (KRAS G12D) [nM]	IC50 ([3]; Homo sapiens, HPAC, 168 h) [nM]	IC50 [3] [nM]	IC50 [1] [nM]	IC50 [4] [nM]	IC50 (KRAS WT [5]; [6])	IC50 ([4]; Homo sapiens, PC-9, 168 h) [nM]	IC50 (KRAS WT [5]; read-out: KRas HTRF IC50) [nM]
Cc1c(F)c(N)cc(-c2nc3c4c(nc(OCC56CCCN5CC(F)C6F)nc4c2F)N2C[C@H]4CC[C@H](N4)[C@H]2[C@H](C)O3)c1C(F)(F)F (single isomer, unassigned) [143 (isomer 2)]	1130	33.5	0.26	3.52						
Cc1c(F)c(N)cc(-c2nc3c4c(nc(OC[C@@H]5C[C@@H]6C[N@@]5CCO6)nc4c2F)N2C[C@H]4CC[C@H](N4)[C@H]2[C@H](C)O3)c1C(F)(F)F (single isomer, unassigned) [151 (isomer 1)]	20000	398	1.84	323						
Cc1c(F)c(N)cc(-c2nc3c4c(nc(OCC5C[C@@H]6C[N@@]5CCO6)nc4c2F)N2C[C@H]4CC[C@H](N4)[C@H]2[C@H](C)O3)c1C(F)(F)F (single isomer, unassigned) [151 (isomer 2)]	1690	25.5	0.12	8.04						
Cc1c(F)c(N)cc(-c2nc3c4c(nc(OCC5CCC6CC(F)(F)CN56)nc4c2F)N2C[C@H]4CC[C@H](N4)[C@H]2[C@H](C)O3)c1C(F)(F)F (single isomer, unassigned) [153 (isomer 1)]	4740	90.9	0.37		19					
Cc1c(F)c(N)cc(-c2nc3c4c(nc(OCC5CCC6CC(F)(F)CN56)nc4c2F)N2C[C@H]4CC[C@H](N4)[C@H]2[C@H](C)O3)c1C(F)(F)F (single isomer, unassigned) [153 (isomer 2)]		87.6	0.32		13.4	4180				
Cc1c(F)c(N)cc(-c2nc3c4c(nc(OCC5CCC6CC(F)(F)CN56)nc4c2F)N2C[C@H]4CC[C@H](N4)[C@H]2[C@H](C)O3)c1C(F)(F)F (single isomer, unassigned) [153 (isomer 3)]		125	0.55		32.9	4490				
Cc1c(F)c(N)cc(-c2nc3c4c(nc(OC[C@@H]5C[C@H]6COCCN65)nc4c2F)N2C[C@H]4CC[C@H](N4)[C@H]2[C@H](C)O3)c1C(F)(F)F (single isomer, unassigned) [159 (diast. 2)]	1240	48.1	0.23	23.8						
Cc1c(F)c(N)cc(-c2nc3c4c(nc(OC[C@]5(CN6C[C@H]7C[C@@H]6CO7)CC5(F)F)nc4c2F)N2C[C@H]4CC[C@H](N4)[C@H]2[C@H](C)O3)c1C(F)(F)F (single isomer, unassigned) [166 a]		3.68	0.1	1.44		1270				
C[C@@H]1Oc2nc(-c3cccc4cccc(Cl)c34)c(F)c3nc(OCC45CCN4CC(F)(F)C5)nc(c23)N2C[C@H]3CC[C@H](N3)[C@@H]12 (single isomer, unassigned) [Compound 21]							8130	3890 nM and 1400 nM		
Cc1cc(N)nc(-c2nc3c4c(nc(OC[C@]56CCN5CC(F)(F)C6)nc4c2F)N2C[C@H]4CC[C@H](N4)[C@H]2[C@H](C)O3)c1C(F)(F)F (single isomer, unassigned) [Compound 45]								69.4 nM and 319 nM	20000	
Cc1cc(N)c(F)c(-c2nc3c4c(ncnc4c2Cl)N2C[C@H]4CC[C@H](N4)[C@H]2[C@H](C)O3)c1C(F)(F)F (single isomer, unassigned) [Compound 94]		200000	2300		2230	15200				
Cc1c(F)c(N)cc(-c2nc3c4c(nc(OCC5CC(F)C6CCCN56)nc4c2F)N2C[C@H]4CC[C@H](N4)[C@H]2[C@H](C)O3)c1C(F)(F)F (single isomer, unassigned) [Compound 160 (diast. 2)]	755	22.5	0.12	6.97						
Cc1c(F)c(N)cc(-c2nc3c4c(nc(OC[C@]5(CN6C[C@H]7C[C@@H]6CO7)CC5(F)F)nc4c2F)N2C[C@H]4CC[C@H](N4)[C@H]2[C@H](C)O3)c1C(F)(F)F [166 b, 5-((5S,5aS,6S,9R)-12-((1-(((1R,4R)-2-Oxa-5-azabicyclo[2.2.1]heptan-5-yl)methyl)-2,2-difluorocyclopropyl)methoxy)-1-fluoro-5-methyl-5a,6,7,8,9,10-hexahydro-5H-4-oxa-3,10a,11,13,14-pentaaza-6,9-methanonaphtho[1,8-ab]heptalen-2-yl)-2-fluoro-3-methyl-4-(trifluoromethyl)aniline]		5.38	0.15		1.49	402				
C#Cc1cccc2cc(O)cc(-c3nc4c5c(nc(OC[C@@]67CCCN6C[C@H](F)C7)nc5c3F)N3C[C@H]5CC[C@H](N5)[C@H]3[C@H](C)O4)c12 [Compound 11, 5-ethynyl-4-((5S,5aS,6S,9R)-1-fluoro-12-(((2R,7aS)-2-fluorotetrahydro-1H-pyrrolizin-7a(5H)-yl)methoxy)-5-methyl-5a,6,7,8,9,10-hexahydro-5H-4-oxa-3,10a,11,13,14-pentaaza-6,9-methanonaphtho[1,8-ab]heptalen-2-yl)naphthalen-2-ol]			0.06					0.38 nM	20000	
C#Cc1c(F)ccc2cccc(-c3nc4c5c(nc(OCC67CCN6CC(F)(F)C7)nc5c3F)N3C[C@H]5CC[C@H](N5)[C@H]3[C@H](C)O4)c12 (stereo partly drawn) [Compound 22, (5S,5aS,6S,9R)-12-((3,3-difluoro-1-azabicyclo[3.2.0]heptan-5-yl)methoxy)-2-(8-ethynyl-7-fluoronaphthalen-1-yl)-1-fluoro-5-methyl-5a,6,7,8,9,10-hexahydro-5H-4-oxa-3,10a,11,13,14-pentaaza-6,9-methanonaphtho[1,8-ab]heptane]							7410			9.95
C#Cc1cccc2cncc(-c3nc4c5c(nc(OC[C@@]67CCCN6C[C@H](F)C7)nc5c3F)N3C[C@H]5CC[C@H](N5)[C@H]3[C@H](C)O4)c12 [Compound 39, (5S,5aS,6S,9R)-2-(5-Ethynylisoquinolin-4-yl)-1-fluoro-12-(((2R,7aS)-2-fluorotetrahydro-1H-pyrrolizin-7a(5H)-yl)methoxy)-5-methyl-5a,6,7,8,9,10-hexahydro-5H-4-oxa-3,10a,11,13,14-pentaaza-6,9-methanonaphtho[1,8-ab]heptalene]			1.78					76.1 nM	20000	
Cc1cc(N)c(F)c(-c2nc3c4c(ncnc4c2Cl)N2C[C@H]4CC[C@H](N4)[C@H]2[C@H](C)O3)c1C(F)(F)F [Compound 93, 3-((5S,5aS,6S,9R)-1-chloro-5-methyl-5a,6,7,8,9,10-hexahydro-5H-4-oxa-3,10a,11,13,14-pentaaza-6,9-methanonaphtho[1,8-ab]heptalen-2-yl)-2-fluoro-5-methyl-4-(trifluoromethyl)aniline]	20000	14400	73.4	836						
Cc1c(F)c(N)cc(-c2nc3c4c(nc(OC[C@@]56CCCN5CC5(CC5(F)F)C6)nc4c2F)N2C[C@H]4CC[C@H](N4)[C@H]2[C@@H](C)O3)c1C(F)(F)F (stereo partly shown) [compound 63]		21.7	0.15		82.4	20800				
